Test results from ChEMBL document CHEMBL1649076, “Discovery of 5-chloro-N2-[(1S)-1-(5-fluoropyrimidin-2-yl)ethyl]-N4-(5-methyl-1H-pyrazol-3-yl)pyrimidine-2,4-diamine (AZD1480) as a novel inhibitor of the Jak/Stat pathway” (J Med Chem, 2011).

What was measured:
[1] = biological target: T1, Tyrosine-protein kinase JAK2 (Homo sapiens, UniProt O60674); assay: Inhibition of JAK2 using Km ATP concentration
[2] = biological target: T1, Tyrosine-protein kinase JAK2; assay: Inhibition of JAK2 using 5 mM of ATP
[3] = biological target: T2, Tyrosine-protein kinase JAK3 (Homo sapiens, UniProt P52333); assay: Inhibition of JAK3 using 5 mM of ATP
T2 sequence (P52333 whole entry): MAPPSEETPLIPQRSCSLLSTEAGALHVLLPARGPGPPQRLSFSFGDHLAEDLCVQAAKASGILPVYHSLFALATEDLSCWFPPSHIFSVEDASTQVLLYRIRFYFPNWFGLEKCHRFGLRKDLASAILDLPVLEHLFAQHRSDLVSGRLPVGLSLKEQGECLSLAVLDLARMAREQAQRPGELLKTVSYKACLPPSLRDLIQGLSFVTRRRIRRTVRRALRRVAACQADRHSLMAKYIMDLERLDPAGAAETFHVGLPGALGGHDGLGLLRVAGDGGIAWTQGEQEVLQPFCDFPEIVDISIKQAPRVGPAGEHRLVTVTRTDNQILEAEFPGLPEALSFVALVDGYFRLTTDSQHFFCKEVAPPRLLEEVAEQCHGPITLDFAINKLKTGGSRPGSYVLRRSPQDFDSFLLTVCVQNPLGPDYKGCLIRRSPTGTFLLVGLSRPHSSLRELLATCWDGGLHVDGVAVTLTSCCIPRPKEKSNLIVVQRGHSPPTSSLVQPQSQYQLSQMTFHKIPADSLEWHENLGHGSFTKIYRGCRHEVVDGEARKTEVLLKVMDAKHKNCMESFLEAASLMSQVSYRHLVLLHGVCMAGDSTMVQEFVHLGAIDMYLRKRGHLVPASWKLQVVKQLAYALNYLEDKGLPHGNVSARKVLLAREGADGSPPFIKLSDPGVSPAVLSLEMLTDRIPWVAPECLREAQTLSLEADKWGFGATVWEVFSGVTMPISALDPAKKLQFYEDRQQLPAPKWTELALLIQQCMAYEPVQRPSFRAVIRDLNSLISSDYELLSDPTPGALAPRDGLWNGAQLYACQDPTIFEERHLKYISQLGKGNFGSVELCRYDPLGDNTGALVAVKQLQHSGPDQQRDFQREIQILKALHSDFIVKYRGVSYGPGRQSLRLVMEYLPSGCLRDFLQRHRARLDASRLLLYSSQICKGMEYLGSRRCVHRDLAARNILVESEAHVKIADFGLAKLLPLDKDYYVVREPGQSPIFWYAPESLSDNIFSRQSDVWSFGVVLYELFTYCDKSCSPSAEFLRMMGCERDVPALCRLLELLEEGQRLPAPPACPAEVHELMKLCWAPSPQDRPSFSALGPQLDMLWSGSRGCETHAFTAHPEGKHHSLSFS

[4] = Growth inhibition of mouse BA/F3 cells expressing Tel-JAK2 kinase after 48 hrs by MTS assay; assay type: functional; conditions: BaF3, 48 h
Liver microsomes = assay: Intrinsic clearance in rat liver microsomes assessed per mg of protein at 2 uM by LCMS/MS analysis; assay type: ADME, Microsome
[5] = Oral bioavailability in Han Wistar rat at 10 mg/kg; assay type: ADME, organism-based; conditions: in vivo
[6] = Observed clearance in Han Wistar rat at 10 mg/kg, po and 3 mg/kg, iv; assay type: ADME, organism-based; conditions: in vivo
[7] = Volume of distribution at steady state in Han Wistar rat at 10 mg/kg, po and 3 mg/kg, iv; assay type: ADME, organism-based; conditions: in vivo, read-out: Vdss
[8] = Half life in Han Wistar rat at 10 mg/kg, po and 3 mg/kg, iv; assay type: ADME, organism-based; conditions: in vivo
[9] = Observed clearance in CD1 mouse at 3 mg/kg, iv; assay type: ADME, organism-based; design: dose 3 mg/kg, route intravenous; conditions: in vivo
[10] = Half life in CD1 mouse at 3 mg/kg, iv; assay type: ADME, organism-based; design: dose 3 mg/kg, route intravenous; conditions: in vivo
[11] = Half life in CD1 mouse at 10 mg/kg, po; assay type: ADME, organism-based; design: dose 10 mg/kg, route oral; conditions: in vivo
[12] = Volume of distribution at steady state in CD1 mouse at 3 mg/kg, iv; assay type: ADME, organism-based; design: dose 3 mg/kg, route intravenous; conditions: in vivo, read-out: Vdss
[13] = AUC (0 to 12 hrs) in CD1 mouse at 10 mg/kg, po; assay type: ADME, organism-based; design: time < 12 hr, dose 10 mg/kg, route oral; conditions: plasma
[14] = Oral bioavailability in CD1 mouse at 10 mg/kg; assay type: ADME, organism-based; conditions: in vivo
[15] = Observed clearance in Beagle dog at 2.5 mg/kg, iv; assay type: ADME, organism-based, Canis lupus familiaris; design: dose 2.5 mg/kg, route intravenous; conditions: in vivo
[16] = Half life in Beagle dog at 2.5 mg/kg, iv; assay type: ADME, organism-based, Canis lupus familiaris; design: dose 2.5 mg/kg, route intravenous; conditions: in vivo
[17] = Half life in Beagle dog at 10 mg/kg, po; assay type: ADME, organism-based, Canis lupus familiaris; design: dose 10 mg/kg, route oral; conditions: in vivo
[18] = Volume of distribution at steady state in Beagle dog at 2.5 mg/kg, iv; assay type: ADME, organism-based, Canis lupus familiaris; design: dose 2.5 mg/kg, route intravenous; conditions: in vivo, read-out: Vdss
[19] = AUC (0 to 12 hrs) in Beagle dog at 10 mg/kg, po; assay type: ADME, organism-based, Canis lupus familiaris; design: time < 12 hr, dose 10 mg/kg, route oral; conditions: plasma
[20] = Oral bioavailability in Beagle dog at 10 mg/kg; assay type: ADME, organism-based, Canis lupus familiaris; conditions: in vivo
[21] = Aqueous equilibrium solubility of the compound at pH 7.4 by HPLC-UV analysis; assay type: physicochemical
HEL = assay: Growth inhibition of human HEL cells expressing Jak2 V617F mutant after 48 hrs by MTS assay; assay type: functional
[22] = Octanol-water partition coefficient, log D of the compound at pH 7.4 by shake flask method; assay type: physicochemical
[23] = Growth inhibition of human UKE1 cells expressing Jak2 V617F mutant after 48 hrs by MTS assay; assay type: functional; conditions: UKE1, 48 h
[24] = biological target: High affinity nerve growth factor receptor (Homo sapiens, UniProt P04629); assay: Inhibition of TrkA
[25] = Growth inhibition of human SET2 cells expressing Jak2 V617F mutant after 48 hrs by MTS assay; assay type: functional; conditions: SET-2, 48 h
[26] = Growth inhibition of mouse BA/F3 cells expressing Tel-JAK3 kinase after 48 hrs by MTS assay; assay type: functional; conditions: BaF3, 48 h
[27] = Growth inhibition of mouse BA/F3 cells expressing Tel-JAK1 kinase after 48 hrs by MTS assay; assay type: functional; conditions: BaF3, 48 h
[28] = Growth inhibition of mouse BA/F3 cells expressing Tel-Tyk2 kinase after 48 hrs by MTS assay; assay type: functional; conditions: BaF3, 48 h
Mus musculus [29] = assay: Antitumor activity against mouse BA/F3 cells expressing Tel-JAK2 xenografted in NCr mouse assessed as reduction of phosphorylated Stat5 level in spleen at 10 mg/kg, po after 8 hrs by Western blotting; assay type: functional, BaF3; design: scale not given: the % may be the effect or the level left
Mus musculus [30] = assay: Antitumor activity against mouse BA/F3 cells expressing Tel-JAK2 xenografted in NCr mouse assessed as reduction of phosphorylated Stat5 level in spleen at 5 mg/kg, po after 2 hrs by Western blotting; assay type: functional, BaF3; design: scale not given: the % may be the effect or the level left
Mus musculus [31] = assay: Antitumor activity against mouse BA/F3 cells expressing Tel-JAK2 xenografted in NCr mouse assessed as reduction of phosphorylated Stat5 level in spleen at 5 mg/kg, po after 6 hrs by Western blotting; assay type: functional, BaF3; design: scale not given: the % may be the effect or the level left
[32] = Antitumor activity against mouse BA/F3 cells expressing Tel-JAK2-luc xenografted in NCr mouse assessed as reduction of bioluminescent signal at 50 mg/kg, po bid measured on day 9 post-tumor cell implantation relative to control; assay type: functional, BaF3
[33] = Antitumor activity against mouse BA/F3 cells expressing Tel-JAK2-luc xenografted in NCr mouse assessed as reduction of bioluminescent signal at 30 mg/kg, po bid measured on day 9 post-tumor cell implantation relative to control; assay type: functional, BaF3
[34] = Inhibition of Stat5 phosphorylation in mouse Ba/F3 cells expressing TEL-Jak2; assay type: cell-based; conditions: BaF3

T1 sequence (O60674 whole entry): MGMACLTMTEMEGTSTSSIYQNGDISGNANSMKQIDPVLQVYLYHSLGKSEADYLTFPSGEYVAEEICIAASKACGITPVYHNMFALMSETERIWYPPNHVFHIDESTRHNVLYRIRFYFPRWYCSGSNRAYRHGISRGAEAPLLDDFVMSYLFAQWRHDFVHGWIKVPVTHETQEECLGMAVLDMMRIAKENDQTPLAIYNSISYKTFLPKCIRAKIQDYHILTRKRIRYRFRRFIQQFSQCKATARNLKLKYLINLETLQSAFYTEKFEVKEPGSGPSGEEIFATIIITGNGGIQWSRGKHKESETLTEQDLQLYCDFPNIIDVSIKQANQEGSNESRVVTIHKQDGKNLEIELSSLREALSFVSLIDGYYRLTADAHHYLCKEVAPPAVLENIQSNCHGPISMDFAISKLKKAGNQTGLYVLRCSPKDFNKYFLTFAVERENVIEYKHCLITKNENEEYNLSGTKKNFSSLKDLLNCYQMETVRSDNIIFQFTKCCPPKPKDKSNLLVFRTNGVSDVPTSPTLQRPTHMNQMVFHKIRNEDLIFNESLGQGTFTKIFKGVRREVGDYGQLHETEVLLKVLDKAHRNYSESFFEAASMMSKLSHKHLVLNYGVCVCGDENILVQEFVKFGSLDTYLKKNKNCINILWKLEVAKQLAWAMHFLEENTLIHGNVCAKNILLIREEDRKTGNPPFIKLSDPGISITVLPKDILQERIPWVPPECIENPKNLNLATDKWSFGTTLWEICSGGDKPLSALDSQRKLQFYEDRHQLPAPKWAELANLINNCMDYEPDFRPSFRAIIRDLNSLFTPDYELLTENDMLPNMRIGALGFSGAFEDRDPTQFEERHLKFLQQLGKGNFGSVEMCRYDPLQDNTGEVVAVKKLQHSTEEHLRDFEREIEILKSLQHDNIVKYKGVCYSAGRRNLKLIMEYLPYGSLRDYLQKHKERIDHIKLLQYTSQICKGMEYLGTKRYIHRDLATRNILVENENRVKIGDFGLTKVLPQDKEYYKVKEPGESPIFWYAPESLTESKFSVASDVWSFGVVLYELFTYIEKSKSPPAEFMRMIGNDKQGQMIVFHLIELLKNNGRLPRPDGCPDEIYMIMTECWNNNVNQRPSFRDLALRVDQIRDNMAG
Sequence of High affinity nerve growth factor receptor (P04629 whole entry): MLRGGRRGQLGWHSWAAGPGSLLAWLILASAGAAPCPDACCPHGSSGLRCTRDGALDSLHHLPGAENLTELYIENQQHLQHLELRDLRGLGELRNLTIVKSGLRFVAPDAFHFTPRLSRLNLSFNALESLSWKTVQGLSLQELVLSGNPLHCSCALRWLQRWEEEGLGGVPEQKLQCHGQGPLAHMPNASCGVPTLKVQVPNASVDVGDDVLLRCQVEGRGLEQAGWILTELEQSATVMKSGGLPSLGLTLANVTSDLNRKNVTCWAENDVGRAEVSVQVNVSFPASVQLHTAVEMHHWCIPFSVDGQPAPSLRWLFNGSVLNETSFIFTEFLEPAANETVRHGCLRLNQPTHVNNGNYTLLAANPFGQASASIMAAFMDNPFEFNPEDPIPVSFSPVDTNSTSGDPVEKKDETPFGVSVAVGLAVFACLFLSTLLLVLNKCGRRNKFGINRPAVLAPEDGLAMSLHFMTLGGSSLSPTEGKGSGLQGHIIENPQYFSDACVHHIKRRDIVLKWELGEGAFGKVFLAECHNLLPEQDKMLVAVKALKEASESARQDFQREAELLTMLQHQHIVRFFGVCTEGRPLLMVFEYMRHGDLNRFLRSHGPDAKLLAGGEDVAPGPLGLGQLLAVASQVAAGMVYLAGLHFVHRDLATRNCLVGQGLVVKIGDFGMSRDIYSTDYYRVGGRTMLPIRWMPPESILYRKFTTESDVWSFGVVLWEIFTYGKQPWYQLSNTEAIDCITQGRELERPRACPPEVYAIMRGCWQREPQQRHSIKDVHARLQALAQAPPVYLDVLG

## Cc1cc(Nc2nc(N[C@@H](C)c3ncc(F)cn3)ncc2Cl)n[nH]1 [AZD-1480]
[1]
  IC50: < 3 nM
[2]
  IC50: 58 nM
[3]
  IC50: 1360 nM
[4]
  GI50: 60 nM
Liver microsomes
  clearance: 11 µL/min/mg
[5]
  bioavailability: 47%
[6]
  clearance: 8.9 mL/min/kg
[7]
  Vd: 3.6 L/kg
[8]
  half-life: 4.7 h
[9]
  clearance: 13.5 mL/min/kg
[10]
  half-life: 1.5 h
[11]
  half-life: 2 h
[12]
  Vd: 1.1 L/kg
[13]
  AUC(0-t) at 12 h: 57.6 µM·h
[14]
  bioavailability: 100%
[15]
  clearance: 2 mL/min/kg
[16]
  half-life: 6.9 h
[17]
  half-life: 8.5 h
[18]
  Vd: 1 L/kg
[19]
  AUC(0-t) at 12 h: 350 µM·h
[20]
  bioavailability: 100%
[21]
  solubility thermodynamic: > 460 µM
HEL
  GI50: 390 nM
[22]
  logD: < 2.6
[23]
  GI50: 54 nM
[24]
  IC50: 3 nM
[25]
  GI50: 16 nM
[26]
  GI50: 2100 nM
[27]
  GI50: 700 nM
[28]
  GI50: 2000 nM
Mus musculus [29]
  Activity: >70%
Mus musculus [30]
  Activity: 90%
Mus musculus [31]
  Activity: 50%
[32]
  Activity: 44
[33]
  Activity: 9
[34]
  IC50: 46 nM
